{"source": "patent US12059482B2", "about": "“Activity-based probe compounds, compositions, and methods of use” (THE BOARD OF TRUSTEES OF THE LELAND STANFORD JUNIOR …, priority 2016, dated 2024)", "tested_on": "cysteine cathepsins", "experiment": "inhibition of probe labeling in living RAW cells by JPM-OEt pretreatment", "type": "cell-based, mouse", "conditions": "JPM-OEt pre-treatment (50 μM, 1 hr)", "description": "RAW cells were cultured in DMEM (GIBCO) supplemented with 10% fetal bovine serum (FBS; GIBCO), 100 units/mL penicillin and 100 μg/mL streptomycin (GIBCO). 4T1 cells (ATCC) were cultured in RPMI (GIBCO) supplemented with 10% fetal bovine serum (FBS; GIBCO), 100 units/mL penicillin and 100 μg/mL streptomycin (GIBCO). All cells were cultured in a 5% CO2 humidified incubator at 37° C. For intact cell labeling, cells were exposed to probe (500× in DMSO) in culture media and incubated for 2 hr at 37° C., unless stated otherwise. Where indicated the cells were preincubated for 1 hr with the inhibitor JPM-OEt (500× in DMSO) or exposed to mouse serum (1 μl probe stock solution in DMSO added to 9 μl serum) for 4 hr before addition to the cells. After labeling, the cells were washed with PBS and resuspended in hypotonic lysis buffer (50 mM PIPES pH 7.4, 10 mM KCl, 5 mM MgCl2, 2 mM EDTA, 4 mM DTT, and 1% NP-40) and put on ice for 15 min, centrifuged at 4° C. for 30 min and supernatants were collected, and protein concentration was determined using a BCA kit (pierce). […] Labeling intensities were quantified using Image J software. […] After 15 min on ice and centrifugation at 4° C. for 30 min the supernatants were collected, and protein concentration was determined using a BCA kit (pierce). […] 4× SDS-sample buffer was added and the protein was denatured for 3 min at 100° C. and analyzed as described above. […]"}
{"substance": "JPM-OEt", "values": [{"measurement": "blocking of probe labeling", "value": "more than 90%"}]}
